In patent EP4606801A1, “FUSED HETEROCYCLIC COMPOUND AND USE THEREOF” (Chengdu Zenitar Biomedical Technology Co., Ltd., priority 2022, dated 2024):

Experiments:
[1] = target: T1, PARP2 (Homo sapiens, UniProt Q9UGN5); test: Determination of PARP2 enzyme (histone-coated plate, Biotin-NAD+); type: biochemical
T1 construct: purchased BPS 80502
Protocol: • 1.2.1 Preparation of buffer solution: PBST: 1x PBS, 0.05% Tween-20; blocking solution: 1x PBS, 0.05% Tween-20, 5% BSA; reaction buffer solution: 50 mM HEPES (pH 7.5), 0.002% Tween-20, 0.1% BSA, 100 mM NaCl, 2mM DTT. • 1.2.2 Coating: A 100 ng/mL Histone coating solution was prepared by using 1x PBS, 25 uL of the coating solution was transferred to a 384-well reaction plate, and the reaction plate was coated overnight at 4°C. • 1.2.3 Washing: After the coating was completed, the coating solution was discarded, and the reaction plate was washed with the PBST solution by means of transferring 50uL of the PBST solution to the 384-well reaction plate, letting it stand for 5 min, discarding the washing solution, refilling the reaction plate, and repeating the washing process 3 times. Finally, the reaction plate was tapped dry and the next step of blocking was proceeded with. • 1.2.4 Blocking: 50 uL of the blocking solution was transferred to the 384-well reaction plate and set for 1 h. • 1.2.5 Washing: After the blocking was completed, the blocking solution was discarded, the reaction plate was washed 3 times with the PBST solution according to the method in Step 2, and the reaction plate was tapped dry. • 1.2.6 A 25/10× PARP2 solution was prepared, then 10 µL of the PARP2 solution was transferred to the 384-well reaction plate.

[2] = target: T2, PARP5A (Homo sapiens, UniProt O95271); test: Determination of PARP5A enzyme (histone-coated plate, Biotin-NAD+); type: biochemical
T2 construct: purchased BPS 80504
Protocol: • 1.3.1 Preparation of buffer solution solution: PBST: 1x PBS, 0.05% Tween-20; blocking solution: 1x PBS, 0.05% Tween-20, 5% BSA; reaction buffer solution: 50 mM HEPES (pH 7.5), 0.002% Tween-20, 0.1% BSA, 100 mM NaCl, 2mM DTT. • 1.3.2 Coating: A 100 ng/mL Histone coating solution was prepared by using 1x PBS, 25 uL of the coating solution was transferred to a 384-well reaction plate, and the reaction plate was coated overnight at 4°C. • 1.3.3 Washing: After the coating was completed, the coating solution was discarded, and the reaction plate was washed with the PBST solution by means of transferring 50uL of the PBST solution to the 384-well reaction plate, letting it stand for 5 min, discarding the washing solution, refilling the reaction plate with the PBST solution, and repeating the washing process 3 times. Finally, the reaction plate was tapped dry and the next step of blocking was proceeded with. • 1.3.4 Blocking: 50 uL of the blocking solution was transferred to the 384-well reaction plate and set for 1 h. • 1.3.5 Washing: After the blocking was completed, the blocking solution was discarded, the reaction plate was washed 3 times with the PBST solution according to the method in Step 2, and the reaction plate was tapped dry. • 1.3.6 A 25/10× PARP5A solution was prepared, then 10 µL of the PARP5A solution was transferred to the 384-well reaction plate. For negative control wells, 10 µL of the reaction buffer solution instead was transferred, resulting in the final concentration of PARP5A of 10 nM. • 1.3.7 A 2,000x compound was prepared, 50 nL of the compound was transferred to with echo, 19.95 uL of the reaction buffer solution was added into the compound, mix well, and 5 uL of the mixed compound was transferred to the 384-well reaction plate. • 1.3.8 A 25/10x Biotin-NAD+ solution was prepared, 10uL of the Biotin-NAD+ solution was transferred to the 384-well reaction plate, resulting in a final Biotin-NAD+ concentration of 2uM, and incubated at room temperature for 60 min. • 1.3.9 Washing: After the reaction was completed, the reaction liquid was discarded. The reaction plate was washed 3 times with the PBST solution according to the method in Step 2, and the reaction plate was tapped dry. • 1.3.10 A Stre-HRP solution was prepared by means of diluting it with the blocking solution, 25uL of the Stre-HRP solution was transferred to the reaction plate, and incubated at room temperature for 1 h, resulting the final concentration of Stre-HRP of 0.1 µg/mL. • 1.3.11 Washing: The Stre-HRP solution was discarded, the reaction plate was washed 3 times with the PBST solution according to the method in Step 2, and the reaction plate was tapped dry. • 1.3.12 Color developing: Femto-ECL Substrate A, Femto-ECL Substrate B, and QuantaRed ADHP were mixed in a 50:50:1 ratio.

[3] = system: breast cancer MDA-MB-436; set-up: species or system NOD/SCID mice; settings: mouse, in vivo
[4] = system: gastric cancer PDX model; test: In-vivo pharmacodynamic study on PDX gastric cancer mice model; settings: Fig. 3
Protocol: Experimental procedure: Tumor tissues from gastric cancer patients were used to establish a stable passaged tumor-bearing mice model. In this study, tumor fragments from mice that had been stably passaged three times were used for subcutaneous inoculation. Eight groups were divided for the experiment, with 6 mice in each group. The negative control group (Control) received normal saline at 0.2 mL per mice per administration, given orally once per day; the carboplatin control group (Carboplatin, Car) received 20 mg/kg at 0.2 mL per mice per administration, administered via intraperitoneal injection once every 7 days.

[5] = system: SUM14PT tumor cells; test: In-vivo pharmacodynamic study on subcutaneous xenograft tumor model of breast cancer SUM14PT; set-up: species or system nude mice; settings: Fig. 4
Protocol: Experimental procedure: In this study, a mice model was established by subcutaneously inoculating SUM14PT tumor cells. Eight groups were divided for the experiment, with 6 mice in each group. The negative control group (Control) received normal saline at 0.2 mL per mice per administration, given orally once per day; the carboplatin control group (Carboplatin, Car) received 20 mg/kg at 0.2 mL per mice per administration, administered via intraperitoneal injection once every 7 days.

[6] = in vivo; settings: male, SD, rat, po
Protocol: Experimental procedure: The compound, a small amount of DMSO and a sodium chloride injection were added to prepare the final solution for administration. The compound was orally administered to 6 male SD rats. […] The supernatant was collected and transferred into a sample vial for assay. Range of standard curve: 10 - 10,000 ng·mL^-1.

T1 sequence (Q9UGN5 whole entry): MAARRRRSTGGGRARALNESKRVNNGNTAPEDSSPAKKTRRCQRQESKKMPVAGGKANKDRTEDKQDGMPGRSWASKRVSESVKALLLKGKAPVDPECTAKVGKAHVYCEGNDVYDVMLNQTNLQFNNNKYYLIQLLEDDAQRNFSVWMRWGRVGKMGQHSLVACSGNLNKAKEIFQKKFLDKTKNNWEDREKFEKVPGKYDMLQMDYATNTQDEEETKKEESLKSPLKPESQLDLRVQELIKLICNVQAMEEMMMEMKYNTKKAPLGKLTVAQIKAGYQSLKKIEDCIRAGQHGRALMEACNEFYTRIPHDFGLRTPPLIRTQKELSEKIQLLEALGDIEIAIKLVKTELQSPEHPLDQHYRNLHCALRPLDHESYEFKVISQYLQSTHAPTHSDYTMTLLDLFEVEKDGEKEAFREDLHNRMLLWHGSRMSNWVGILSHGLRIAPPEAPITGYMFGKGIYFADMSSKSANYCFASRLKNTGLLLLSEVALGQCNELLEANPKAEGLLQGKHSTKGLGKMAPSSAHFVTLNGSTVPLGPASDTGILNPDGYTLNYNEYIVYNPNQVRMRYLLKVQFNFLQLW
T2 sequence (O95271 1001-1327): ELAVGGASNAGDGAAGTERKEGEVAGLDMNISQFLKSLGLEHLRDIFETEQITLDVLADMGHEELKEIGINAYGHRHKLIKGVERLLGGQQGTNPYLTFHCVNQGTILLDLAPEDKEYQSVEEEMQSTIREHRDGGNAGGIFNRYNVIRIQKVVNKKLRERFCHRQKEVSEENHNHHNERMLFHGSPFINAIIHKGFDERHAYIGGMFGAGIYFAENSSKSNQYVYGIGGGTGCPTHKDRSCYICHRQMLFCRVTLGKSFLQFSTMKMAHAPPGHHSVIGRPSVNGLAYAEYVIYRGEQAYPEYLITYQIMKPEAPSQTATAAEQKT

## [2H]C([2H])([2H])C([2H])([2H])c1cc2ncc(CN3CC=C(c4ccc(C(=O)NC)nc4)CC3)cc2[nH]c1=O [Compound 6, 1'-((7-(ethyl-d5)-6-oxo-5,6-dihydro-1,5-naphthyridin-3-yl)methyl)-N-methyl-1',2',3',6'-tetrahy dro-[3,4'-bipyridine]-6-carboxamide]
[1]
  IC50: > 1000 nM
[2]
  IC50: > 1000 nM
[3]
  anti-tumor efficacy in the model of large-volume tumors: complete regression of tumors
  rate of tumor regression compared to the compounds 1 and 21: faster rate of tumor regression
[4]; 3 mg/kg p.o once per day combined with carboplatin 20 mg/kg i.p once per 7 days
  tumor growth in gastric cancer PDX model: significantly inhibit tumor growth
[4]; 0.3, 1, 3 mg/kg p.o once per day combined with carboplatin 20 mg/kg i.p once per 7 days
  inhibitory effect on the gastric cancer PDX model: dose-dependent inhibitory effect
[5]; 1 mg/kg orally once daily + carboplatin, versus Olaparib 100 mg/kg + carboplatin
  therapeutic efficacy in combination with carboplatin: better therapeutic efficacy than Olaparib
[5]; 0.3 and 1 mg/kg orally once daily, versus Olaparib 100 mg/kg orally once daily
  anti-tumor efficacy, monotherapy: better anti-tumor efficacy compared to Olaparib
[6]
  half-life: 504 min
